For one compound, solubility results are on record in US10251932B2, “Preparations containing amorphous emodepside” (Bayer Intellectual Property GmbH, priority 2011, dated 2019).

In general, solubility refers to the concentration that dissolves in the medium under given conditions.

This data set is described as follows: Solubility of emodepside in water. It counts as physicochemical. To be noted: range of pH 4-10.

SMILES strings stand for the structures. ≈ marks a conversion by molar mass, not a printed value.

Take `CC(C)CC1C(=O)OC(Cc2ccc(N3CCOCC3)cc2)C(=O)N(C)C(CC(C)C)C(=O)OC(C)C(=O)N(C)C(CC(C)C)C(=O)OC(Cc2ccc(N3CCOCC3)cc2)C(=O)N(C)C(CC(C)C)C(=O)OC(C)C(=O)N1C` [Emodepside, cyclo[(R)-lactoyl-N-methyl-1-leucyl-(R)-3-(p-morpholinophenyl)lactoyl-N-methyl-1-leucyl-(R)-lactoyl-N-methyl-1-leucyl-(R)-3-(p-morpholinophenyl)lactoyl-N-methyl-1-leucyl]: the solubility fell in the range of 5 to 7 µg/mL (≈ 4.47 to 6.25 µM).
